The nature of data set [1]: Dissolution test: velocity of dissolution of test samples after addition of distilled water at ambient temperature. Type of data set: physicochemical. As to conditions: reference sample without carbonic acid salt. The procedure:
As a comparison, the following reference samples were also tested.
The velosity of dissolution of the test samples were observed after addition of distilled water into said test samples at ambient temperature,respectively.

The subject of another data set is P. aeruginosa 26. The data set can be described thus: In vitro antibacterial activity, two-fold agar-plate dilution method (MIC). Type of data set: cell-based. The note with it: Pseudomonas aeruginosa, HI-agar, 10^6 viable cells per ml, 37° C., 20 hours, read-out: minimal inhibitory concentration (MIC). The procedure: Sodium 7-[2-allyloxyimino-2-(5-carboxylatoamino-1,2,4-thiadiazol-3-yl)acetamido]- 3-(1-pyridinio)methyl-3-cephem-4-carboxylate (syn isomer).
In vitro antibacterial activity was determined by the two-fold agar-plate dilution method as described below.

Counter-ions that a name gives are not always drawn.

As to `C=CCO/N=C(\C(=O)NC1C(=O)N2C(C(=O)[O-])=C(C[n+]3ccccc3)CSC12)c1nsc(N)n1` (stereo not drawn) [Reference Sample (1), 7-[2-allyloxyimino-2-(5-amino-1,2,4-thiadiazol-3-yl)acetamido]-3-(1-pyridinio)methyl-3-cephem-4-carboxylate (syn isomer)], the “Maximum concentration of this sample dissolved in water” value (shortened to “Maximum concentration”) in data set [1] was 4.07 % (w/v). `C=CCO/N=C(\C(=O)NC1C(=O)N2C(C(=O)[O-])=C(C[n+]3ccccc3)CSC12)c1nsc(N)n1` (stereo not drawn) [Reference Sample (2), 7-[2-allyloxyimino-2-(5-amino-1,2,4-thiadiazol-3-yl)acetamido]-3-(1-pyridinio)methyl-3-cephem-4-carboxylate hydrochloride (syn isomer)]: the “Maximum concentration” value in data set [1] is 8.28 % (w/v). For the compound `CO/N=C(\C(=O)NC1C(=O)N2C(C(=O)[O-])=C(C[n+]3ccccc3)CSC12)c1nsc(N)n1` (stereo not drawn) [Reference Sample (3), 7-[2-(5-amino-1,2,4-thiadiazol-3-yl)-2-methoxyiminoacetamido]-3-(1-pyridinio)methyl-3-cephem-4-carboxylate (syn isomer)], the “Maximum concentration” value in data set [1] is recorded as 2 % (w/v).

Regarding `CO/N=C(\C(=O)NC1C(=O)N2C(C(=O)[O-])=C(C[n+]3ccccc3)CSC12)c1nsc(N)n1` (stereo not drawn) [Reference Sample (4), 7-[2-(5-amino-1,2,4-thiadiazol-3-yl)-2-methoxyiminoacetamido]-3-(1-pyridinio)methyl-3-cephem-4-carboxylate sulfate (syn isomer)], the “Maximum concentration” value in data set [1] is reported as 10 % (w/v).

As for `C=CCO/N=C(\C(=O)NC1C(=O)N2C(C(=O)[O-])=C(C[n+]3ccccc3)CSC12)c1nsc(NC(=O)O)n1` (stereo not drawn) [Test salt, Sodium 7-[2-allyloxyimino-2-(5-carboxylatoamino-1,2,4-thiadiazol-3-yl)acetamido]-3-(1-pyridinio)methyl-3-cephem-4-carboxylate (syn isomer)], in the data set on P. aeruginosa 26, the MIC was 0.39 µg/mL.

The values above are taken from patent publication US5104866A, “Water-soluble antibiotic composition and water-soluble salts of cephem compounds” (Fujisawa Pharmaceutical Company, Ltd., priority 1987, dated 1992).
